The record followed here is US20090143396A1, “Sulfonyl-Substituted Aryl Compounds as Modulators of Peroxisome Proliferator Activated Receptors” (priority 2005, published 2009).

What all share (assay type): cell-based, murine and human
What all share (details): GAL4 chimeric receptor, 20-24 hours treatment

The target in one experiment is T1, PPAR-alpha (UniProt Q07869).
T1 sequence (Q07869 1-468): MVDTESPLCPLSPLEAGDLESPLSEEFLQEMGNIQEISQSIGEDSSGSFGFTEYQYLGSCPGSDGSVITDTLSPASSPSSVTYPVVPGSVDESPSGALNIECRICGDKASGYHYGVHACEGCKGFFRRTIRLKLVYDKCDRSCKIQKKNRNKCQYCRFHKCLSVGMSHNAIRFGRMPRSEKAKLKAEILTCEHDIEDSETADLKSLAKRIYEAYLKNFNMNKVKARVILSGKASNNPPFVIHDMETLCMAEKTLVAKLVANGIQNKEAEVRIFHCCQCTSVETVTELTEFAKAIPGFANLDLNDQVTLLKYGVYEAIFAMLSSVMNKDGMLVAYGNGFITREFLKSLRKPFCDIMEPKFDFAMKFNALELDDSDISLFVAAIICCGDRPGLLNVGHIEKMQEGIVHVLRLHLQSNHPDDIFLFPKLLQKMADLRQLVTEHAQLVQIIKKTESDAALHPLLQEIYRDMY
Briefly: Transient transfection transactivation assay in CV-1 cells, GAL4-PPAR-alpha LBD chimera, luciferase reporter. The source says:
(§1) Compounds may be screened for functional potency in transient transfection assays in CV-1 cells for their ability to activate the PPAR subtypes (transactivation assay). A previously established chimeric receptor system was utilized to allow comparison of the relative transcriptional activity of the receptor subtypes on the same synthetic response element and to prevent endogenous receptor activation from complicating the interpretation of results. See, for example, Lehmann, J. M.; Moore, L. B.; Smith-Oliver, T. A; Wilkinson, W. O.; Willson, T. M.; Kliewer, S. A., An antidiabetic thiazolidinedione is a high affinity ligand for peroxisome proliferator-activated receptor […], J. Biol. Chem., 1995, 270, 12953-6. The ligand binding domains for murine and human PPAR-alpha, PPAR-gamma, and PPAR-delta are each fused to the yeast transcription factor GAL4 DNA binding domain. CV-1 cells were transiently transfected with expression vectors for the respective PPAR chimera along with a reporter construct containing four or five copies of the GAL4 DNA binding site driving expression of luciferase. After 8-16 h, the cells are replated into multi-well assay plates and the media is exchanged to phenol-red free DME medium supplemented with 5% delipidated calf serum. 4 hours after replating, cells were treated with either compounds or 1% DMSO for 20-24 hours. Luciferase activity was then assayed with Britelite (Perkin Elmer) following the manufacturer's protocol and measured with either the Perl in Elmer Viewlux or Molecular Devices Acquest (see, for example, Kliewer, S. A., et. al. Cell 1995, 83, 813-819). Rosiglitazone is used as a positive control in the […] assay. Wy-14643 and GW7647 is used as a positive control in the […] assay. GW501516 is used as the positive control in the PPARδ assay.
(§2) Compounds of Examples 1-10 were assayed to measure their biological activity with respect to their EC50 values and efficacy for modulating PPAR-alpha, PPAR-gamma, and PPAR-delta as set forth in Table 1.
Background: Reporter assays use an easily measured gene product as a stand-in for the process of interest.

For a further experiment, the target named is T2, PPAR-delta (UniProt Q03181).
T2 sequence (Q03181 1-441): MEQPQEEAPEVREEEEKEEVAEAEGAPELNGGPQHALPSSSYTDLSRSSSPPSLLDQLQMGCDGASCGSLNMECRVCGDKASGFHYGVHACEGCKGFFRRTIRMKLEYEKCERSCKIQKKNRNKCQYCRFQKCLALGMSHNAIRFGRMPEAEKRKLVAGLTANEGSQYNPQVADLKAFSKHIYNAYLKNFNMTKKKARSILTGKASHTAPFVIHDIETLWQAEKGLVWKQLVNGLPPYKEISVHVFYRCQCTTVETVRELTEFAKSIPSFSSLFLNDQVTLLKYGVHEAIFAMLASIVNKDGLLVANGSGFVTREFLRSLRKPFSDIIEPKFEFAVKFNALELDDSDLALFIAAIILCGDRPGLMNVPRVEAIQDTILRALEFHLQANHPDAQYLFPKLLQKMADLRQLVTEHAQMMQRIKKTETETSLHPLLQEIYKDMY
Briefly: Transient transfection transactivation assay in CV-1 cells, GAL4-PPAR-delta LBD chimera, luciferase reporter.
Description: as §1, §2

Another experiment deals with T3, PPAR-gamma (UniProt P37231).
T3 sequence (P37231 1-505): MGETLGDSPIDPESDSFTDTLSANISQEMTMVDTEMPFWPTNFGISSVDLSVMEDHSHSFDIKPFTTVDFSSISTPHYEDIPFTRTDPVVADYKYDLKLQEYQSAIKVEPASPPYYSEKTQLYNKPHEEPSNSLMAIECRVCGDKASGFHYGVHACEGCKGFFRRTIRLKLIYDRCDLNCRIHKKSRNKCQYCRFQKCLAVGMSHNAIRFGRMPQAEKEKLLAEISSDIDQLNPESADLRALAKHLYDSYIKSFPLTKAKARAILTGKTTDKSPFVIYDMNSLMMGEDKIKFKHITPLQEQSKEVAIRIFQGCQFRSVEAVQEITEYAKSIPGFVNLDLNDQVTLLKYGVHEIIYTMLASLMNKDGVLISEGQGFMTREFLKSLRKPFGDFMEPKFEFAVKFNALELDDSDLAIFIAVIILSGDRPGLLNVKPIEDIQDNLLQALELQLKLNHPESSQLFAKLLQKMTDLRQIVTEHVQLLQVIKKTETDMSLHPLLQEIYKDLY
Briefly: Transient transfection transactivation assay in CV-1 cells, GAL4-PPAR-gamma LBD chimera, luciferase reporter.
Description: as §1, §2

A word on the EC50: it is the concentration giving half of the maximal effect. With `Cc1ccc(S(=O)(=O)N2[C@H](C)CN(Cc3ccc(OC(F)(F)F)cc3)C[C@@H]2C)cc1CC(=O)O` [Example 1, {5-[2,6-Dimethyl-4-(4-trifluoromethoxy-benzyl)-piperazine-1-sulfonyl]-2-methyl-phenyl}-acetic acid], the figures for the EC50 on PPAR-alpha, on PPAR-delta and at PPAR-gamma were below 5 µM, below 5 µM and above 100 µM, respectively.

For `Cc1ccc(S(=O)(=O)N2[C@H](C)CN(Cc3ccc(C(F)(F)F)cc3)C[C@@H]2C)cc1CC(=O)O` [Example 2, {5-[2,6-Dimethyl-4-(4-trifluoromethyl-benzyl)-piperazine-1-sulfonyl]-2-methyl-phenyl}-acetic acid], the EC50 was below 5 µM at PPAR-alpha, below 5 µM at PPAR-delta and 5 to 100 µM on PPAR-gamma.

Consider `Cc1ccc(S(=O)(=O)N2CCN(Cc3ccc(OC(F)(F)F)cc3)CC2)cc1CC(=O)O` [Example 3, {2-Methyl-5-[4-(4-trifluoromethoxy-benzyl)-piperazine-1-sulfonyl]-phenyl}-acetic acid], for which the EC50 at PPAR-alpha, on PPAR-delta and on PPAR-gamma was below 5 µM each time.

With `Cc1ccc(S(=O)(=O)N2CCN(Cc3ccc(C(F)(F)F)cc3)CC2)cc1CC(=O)O` [Example 4, {2-Methyl-5-[4-(4-trifluoromethyl-benzyl)-piperazine-1-sulfonyl]-phenyl}-acetic acid], the concentration for a half-maximal effect (EC50) on PPAR-alpha, at PPAR-delta and on PPAR-gamma was below 5 µM throughout.

For `Cc1cc(CC(=O)O)cc(S(=O)(=O)N2[C@H](C)CN(Cc3ccc(OC(F)(F)F)cc3)C[C@@H]2C)c1` [Example 5, {3-[2,6-Dimethyl-4-(4-trifluoromethoxy-benzyl)-piperazine-1-sulfonyl]-5-methyl-phenyl}-acetic acid], the EC50 on PPAR-alpha is 5 to 100 µM; on PPAR-delta, below 5 µM; at PPAR-gamma it was above 100 µM.

For the molecule `C[C@@H]1CN(Cc2ccc(OC(F)(F)F)cc2)C[C@H](C)N1S(=O)(=O)c1cccc(CC(=O)O)c1` [Example 6, {3-[2,6-Dimethyl-4-(4-trifluoromethoxy-benzyl)-piperazine-1-sulfonyl]-phenyl}-acetic acid], the concentration for a half-maximal effect (EC50) on PPAR-alpha was 5 to 100 µM; at PPAR-delta, below 5 µM; on PPAR-gamma it was below 5 µM.

For the molecule `Cc1ccc(S(=O)(=O)N2[C@H](C)CN(Cc3ccc(Cl)c(Cl)c3)C[C@@H]2C)cc1CC(=O)O` [Example 7, {5-[4-(3,4-Dichloro-benzyl)-2,6-dimethyl-piperazine-1-sulfonyl]-2-methyl-phenyl}-acetic acid], the EC50 at PPAR-alpha was below 5 µM; on PPAR-delta, below 5 µM; on PPAR-gamma it was above 100 µM.

As for `C#Cc1cc(CC(=O)O)cc(S(=O)(=O)N2CCN(Cc3ccc(OC(F)(F)F)cc3)CC2)c1` [Example 8, 2-{3-Ethynyl-5-[-4-(4-trifluoromethoxybenzyl)piperazine-1-ylsulfonyl]phenyl}acetic acid], the half-maximal effective concentration (EC50) at PPAR-alpha, at PPAR-delta and on PPAR-gamma was below 5 µM throughout.

As for `C#Cc1cc(CC(=O)O)cc(S(=O)(=O)N2CCN(Cc3cccc(OC(F)(F)F)c3)CC2)c1` [Example 9, 2-{3-Ethynyl-5-[4-(3-trifluoromethoxybenzyl)piperazine-1-ylsulfonyl]phenyl}acetic acid], the 50% effective concentration (EC50) on PPAR-alpha, on PPAR-delta and at PPAR-gamma was below 5 µM each time.

For `Cc1ccc(S(=O)(=O)N2[C@H](C)CN(C(=O)Cc3ccc(OC(F)(F)F)cc3)C[C@@H]2C)cc1CC(=O)O` [Example 10, 2-(5-((2R,6S)-2,6-dimethyl-4-(2-(4-(trifluoromethoxy)phenyl)acetyl)piperazin-1-ylsulfonyl)-2-methylphenyl)acetic acid], the EC50 on PPAR-alpha is above 100 µM; on PPAR-delta, below 5 µM; at PPAR-gamma it was above 100 µM.
